Measured values as given in US20230017045A1, “PYRIDINE AND PYRIMIDINE CARBOXYLATE HERBICIDES AND METHODS OF USE THEREOF” (Dow AgroSciences LLC, priority 2017, published 2023).

Each molecule was assayed on test plant species (assay: Post-emergent herbicidal activity test (greenhouse, foliar spray, visual growth reduction)). Details: post-emergence, 336 h, ALOMY: blackgrass (Alopecurus myosuroides), 140 g ai/ha, 14 days after application, read-out: Visual Growth Reduction (%) 14 Days After Application, ALOMY.
Assay type: in vivo
Procedure: Post-emergent Test: Seeds or nutlets of the desired test plant species were planted in Sun Gro Metro-Mix® 360 planting mixture, which typically has a pH of 6.0 to 6.8 and an organic matter content of about 30 percent, in plastic pots with a surface area of 64 square centimeters. In some aspects, to ensure good germination and healthy plants, a fungicide treatment and/or other chemical or physical treatment was applied. The plants were grown for 7-21 d in a greenhouse with an approximate 15 h photoperiod which was maintained at 23-29° C. during the day and 22-28° C. during the night. Nutrients and water were added on a regular basis and supplemental lighting was provided with overhead metal halide 1000-Watt lamps as necessary. Plants were used for testing when they reached the first or second true leaf stage. A weighed amount, determined by the highest rate to be tested, of each test compound was placed in a 25 mL glass vial and was dissolved in 4 mL of a 97:3 v/v mixture of acetone and DMSO to obtain concentrated stock solutions. […] The concentrated stock solutions obtained were diluted with 20 mL of an aqueous mixture containing acetone, water, isopropyl alcohol, DMSO, […] crop oil concentrate, and X-77 surfactant in a 48.5:39:10:1.5:1.0:0.02 v/v ratio to obtain spray solutions containing the application rate. Compound requirements are based upon a 12 mL application volume at a rate of 187 liters per hectare (L/ha). Formulated compounds were applied to the plant material with an overhead Mandel track sprayer equipped with […] nozzles calibrated to deliver 187 L/ha over an application area of 0.64 square meters at a spray height of 18 inches (43 cm) above the average plant canopy height. Control plants were sprayed in the same manner with the solvent blank. The treated plants and control plants were placed in a greenhouse as described above and watered by subirrigation to prevent wash-off of the test compounds. After 14 d, the condition of the test plants as compared with that of the nontreated and control plants was determined visually and scored on a scale of 0 to 100 percent where 0 corresponds to no injury and 100 corresponds to complete control. In the reporting of the results, Table A: Percent Growth Reduction Conversion Table was used.

Structure (SMILES) | pest or weed control at 140 g/ha [%]
COCC(F)(F)c1ccc(-c2ccc(Cl)c(C(=O)OC)n2)c(Cl)c1 [F177, methyl 3-chloro-6-(2-chloro-4-(1,1-difluoro-2-methoxyethyl)phenyl)picolinate] | 0 to 29
COC(=O)c1nc(-c2ccc(Cl)c(OC)c2F)ncc1Cl [F115, methyl 5-chloro-2-(4-chloro-2-fluoro-3-methoxyphenyl)pyrimidine-4-carboxylate] | 0 to 29

Same assay, conditions: post-emergence, 336 h, AMARE: redroot pigweed (Amaranthus retroflexus), 140 g ai/ha, 14 days after application, read-out: Visual Growth Reduction (%) 14 Days After Application, AMARE

Structure (SMILES) | pest or weed control at 140 g/ha [%]
COCC(F)(F)c1ccc(-c2ccc(Cl)c(C(=O)OC)n2)c(Cl)c1 [F177, methyl 3-chloro-6-(2-chloro-4-(1,1-difluoro-2-methoxyethyl)phenyl)picolinate] | 0 to 29
COC(=O)c1nc(-c2ccc(Cl)c(OC)c2F)ncc1Cl [F115, methyl 5-chloro-2-(4-chloro-2-fluoro-3-methoxyphenyl)pyrimidine-4-carboxylate] | 0 to 29

Same assay, conditions: post-emergence, 336 h, AVEFA: wild oat (Avena fatua), 140 g ai/ha, 14 days after application, read-out: Visual Growth Reduction (%) 14 Days After Application, AVEFA

Structure (SMILES) | pest or weed control at 140 g/ha [%]
COCC(F)(F)c1ccc(-c2ccc(Cl)c(C(=O)OC)n2)c(Cl)c1 [F177, methyl 3-chloro-6-(2-chloro-4-(1,1-difluoro-2-methoxyethyl)phenyl)picolinate] | 0 to 29
COC(=O)c1nc(-c2ccc(Cl)c(OC)c2F)ncc1Cl [F115, methyl 5-chloro-2-(4-chloro-2-fluoro-3-methoxyphenyl)pyrimidine-4-carboxylate] | 0 to 29

Same assay, conditions: post-emergence, 336 h, CHEAL: lambsquarters (Chenopodium album), 140 g ai/ha, 14 days after application, read-out: Visual Growth Reduction (%) 14 Days After Application, CHEAL

Structure (SMILES) | pest or weed control at 140 g/ha [%]
COCC(F)(F)c1ccc(-c2ccc(Cl)c(C(=O)OC)n2)c(Cl)c1 [F177, methyl 3-chloro-6-(2-chloro-4-(1,1-difluoro-2-methoxyethyl)phenyl)picolinate] | 60 to 74
COC(=O)c1nc(-c2ccc(Cl)c(OC)c2F)ncc1Cl [F115, methyl 5-chloro-2-(4-chloro-2-fluoro-3-methoxyphenyl)pyrimidine-4-carboxylate] | 0 to 29

Same assay, conditions: post-emergence, 336 h, CIRAR: canada thistle (Cirsium arvense), 140 g ai/ha, 14 days after application, read-out: Visual Growth Reduction (%) 14 Days After Application, CIRAR

Structure (SMILES) | pest or weed control at 140 g/ha [%]
COCC(F)(F)c1ccc(-c2ccc(Cl)c(C(=O)OC)n2)c(Cl)c1 [F177, methyl 3-chloro-6-(2-chloro-4-(1,1-difluoro-2-methoxyethyl)phenyl)picolinate] | 45 to 59
COC(=O)c1nc(-c2ccc(Cl)c(OC)c2F)ncc1Cl [F115, methyl 5-chloro-2-(4-chloro-2-fluoro-3-methoxyphenyl)pyrimidine-4-carboxylate] | 60 to 74

Same assay, conditions: post-emergence, 336 h, CYPES: yellow nutsedge (Cyperus esculentus), 140 g ai/ha, 14 days after application, read-out: Visual Growth Reduction (%) 14 Days After Application, CYPES

Structure (SMILES) | pest or weed control at 140 g/ha [%]
COCC(F)(F)c1ccc(-c2ccc(Cl)c(C(=O)OC)n2)c(Cl)c1 [F177, methyl 3-chloro-6-(2-chloro-4-(1,1-difluoro-2-methoxyethyl)phenyl)picolinate] | 0 to 29
COC(=O)c1nc(-c2ccc(Cl)c(OC)c2F)ncc1Cl [F115, methyl 5-chloro-2-(4-chloro-2-fluoro-3-methoxyphenyl)pyrimidine-4-carboxylate] | 0 to 29

Same assay, conditions: post-emergence, 336 h, DIGSA: crabgrass (Digitaria sanguinalis), 140 g ai/ha, 14 days after application, read-out: Visual Growth Reduction (%) 14 Days After Application, DIGSA

Structure (SMILES) | pest or weed control at 140 g/ha [%]
COCC(F)(F)c1ccc(-c2ccc(Cl)c(C(=O)OC)n2)c(Cl)c1 [F177, methyl 3-chloro-6-(2-chloro-4-(1,1-difluoro-2-methoxyethyl)phenyl)picolinate] | 0 to 29
COC(=O)c1nc(-c2ccc(Cl)c(OC)c2F)ncc1Cl [F115, methyl 5-chloro-2-(4-chloro-2-fluoro-3-methoxyphenyl)pyrimidine-4-carboxylate] | 0 to 29

Same assay, conditions: post-emergence, 336 h, ECHCG: barnyardgrass (Echinochloa crus-galli), 140 g ai/ha, 14 days after application, read-out: Visual Growth Reduction (%) 14 Days After Application, ECHCG

Structure (SMILES) | pest or weed control at 140 g/ha [%]
COCC(F)(F)c1ccc(-c2ccc(Cl)c(C(=O)OC)n2)c(Cl)c1 [F177, methyl 3-chloro-6-(2-chloro-4-(1,1-difluoro-2-methoxyethyl)phenyl)picolinate] | 0 to 29
COC(=O)c1nc(-c2ccc(Cl)c(OC)c2F)ncc1Cl [F115, methyl 5-chloro-2-(4-chloro-2-fluoro-3-methoxyphenyl)pyrimidine-4-carboxylate] | 0 to 29

Same assay, conditions: post-emergence, 336 h, IPOHE: ivy-leaf morning glory (Ipomoea hederacea), 140 g ai/ha, 14 days after application, read-out: Visual Growth Reduction (%) 14 Days After Application, IPOHE

Structure (SMILES) | pest or weed control at 140 g/ha [%]
COCC(F)(F)c1ccc(-c2ccc(Cl)c(C(=O)OC)n2)c(Cl)c1 [F177, methyl 3-chloro-6-(2-chloro-4-(1,1-difluoro-2-methoxyethyl)phenyl)picolinate] | 60 to 74
COC(=O)c1nc(-c2ccc(Cl)c(OC)c2F)ncc1Cl [F115, methyl 5-chloro-2-(4-chloro-2-fluoro-3-methoxyphenyl)pyrimidine-4-carboxylate] | 30 to 44

Same assay, conditions: post-emergence, 336 h, KCHSC: kochia (Bassia scoparia), 140 g ai/ha, 14 days after application, read-out: Visual Growth Reduction (%) 14 Days After Application, KCHSC

Structure (SMILES) | pest or weed control at 140 g/ha [%]
COCC(F)(F)c1ccc(-c2ccc(Cl)c(C(=O)OC)n2)c(Cl)c1 [F177, methyl 3-chloro-6-(2-chloro-4-(1,1-difluoro-2-methoxyethyl)phenyl)picolinate] | 45 to 59

Same assay, conditions: post-emergence, 336 h, ORYSA: rice (Oryza sativa), 140 g ai/ha, 14 days after application, read-out: Visual Growth Reduction (%) 14 Days After Application, ORYSA

Structure (SMILES) | pest or weed control at 140 g/ha [%]
COCC(F)(F)c1ccc(-c2ccc(Cl)c(C(=O)OC)n2)c(Cl)c1 [F177, methyl 3-chloro-6-(2-chloro-4-(1,1-difluoro-2-methoxyethyl)phenyl)picolinate] | 0 to 29
COC(=O)c1nc(-c2ccc(Cl)c(OC)c2F)ncc1Cl [F115, methyl 5-chloro-2-(4-chloro-2-fluoro-3-methoxyphenyl)pyrimidine-4-carboxylate] | 0 to 29

Same assay, conditions: post-emergence, 336 h, SETFA: giant foxtail (Setaria faberi), 140 g ai/ha, 14 days after application, read-out: Visual Growth Reduction (%) 14 Days After Application, SETFA

Structure (SMILES) | pest or weed control at 140 g/ha [%]
COCC(F)(F)c1ccc(-c2ccc(Cl)c(C(=O)OC)n2)c(Cl)c1 [F177, methyl 3-chloro-6-(2-chloro-4-(1,1-difluoro-2-methoxyethyl)phenyl)picolinate] | 0 to 29
COC(=O)c1nc(-c2ccc(Cl)c(OC)c2F)ncc1Cl [F115, methyl 5-chloro-2-(4-chloro-2-fluoro-3-methoxyphenyl)pyrimidine-4-carboxylate] | 0 to 29

Same assay, conditions: post-emergence, 336 h, SORVU: grain sorghum (Sorghum vulgare), 140 g ai/ha, 14 days after application, read-out: Visual Growth Reduction (%) 14 Days After Application, SORVU

Structure (SMILES) | pest or weed control at 140 g/ha [%]
COCC(F)(F)c1ccc(-c2ccc(Cl)c(C(=O)OC)n2)c(Cl)c1 [F177, methyl 3-chloro-6-(2-chloro-4-(1,1-difluoro-2-methoxyethyl)phenyl)picolinate] | 30 to 44
COC(=O)c1nc(-c2ccc(Cl)c(OC)c2F)ncc1Cl [F115, methyl 5-chloro-2-(4-chloro-2-fluoro-3-methoxyphenyl)pyrimidine-4-carboxylate] | 0 to 29

Same assay, conditions: post-emergence, 336 h, STEME: common chickweed (Stellaria media), 140 g ai/ha, 14 days after application, read-out: Visual Growth Reduction (%) 14 Days After Application, STEME

Structure (SMILES) | pest or weed control at 140 g/ha [%]
COCC(F)(F)c1ccc(-c2ccc(Cl)c(C(=O)OC)n2)c(Cl)c1 [F177, methyl 3-chloro-6-(2-chloro-4-(1,1-difluoro-2-methoxyethyl)phenyl)picolinate] | 0 to 29
COC(=O)c1nc(-c2ccc(Cl)c(OC)c2F)ncc1Cl [F115, methyl 5-chloro-2-(4-chloro-2-fluoro-3-methoxyphenyl)pyrimidine-4-carboxylate] | 0 to 29

Same assay, conditions: post-emergence, 336 h, TRZAS: wheat, spring (Triticum aestivum), 140 g ai/ha, 14 days after application, read-out: Visual Growth Reduction (%) 14 Days After Application, TRZAS

Structure (SMILES) | pest or weed control at 140 g/ha [%]
COCC(F)(F)c1ccc(-c2ccc(Cl)c(C(=O)OC)n2)c(Cl)c1 [F177, methyl 3-chloro-6-(2-chloro-4-(1,1-difluoro-2-methoxyethyl)phenyl)picolinate] | 0 to 29
COC(=O)c1nc(-c2ccc(Cl)c(OC)c2F)ncc1Cl [F115, methyl 5-chloro-2-(4-chloro-2-fluoro-3-methoxyphenyl)pyrimidine-4-carboxylate] | 0 to 29
